Values of other authors, collected in patent US11951146B2, “Stimulation of NK cell activity by using a combination of broccoli, Nigella Sativa, Green Tea, and pterostilbene alone and together with metformin” (Therapeutic Solutions International, Inc., priority 2020, dated 2024).
Read-outs that look alike come from different tables or passages of the source.

Legend:
[1] = system: primary peritoneal macrophages
[2] = system: LPS-challenged macrophages; details: pre-incubated 6 h, then LPS 24 h
LPS-induced ARDS [3] = system: LPS-induced ARDS
[4] = system: lipopolysaccharide-induced inflammatory reactions
sepsis = details: for concentration of IL-la: controls 1187.0±278.64
[5] = system: lipopolysaccharide-activated macrophages
[6] = system: myocardial ischemia and reperfusion; details: EGCG 10 mg/kg intravenously then 10 mg/kg/h infusion
experimental colitis = details: 50 and 100 mg/kg/day EGCG
polymicrobial sepsis [7] = details: 10 mg/kg intraperitoneally at 1 and 6 h after CL2P and every 12 h
polymicrobial sepsis [8] = details: 10 mg/kg intraperitoneally, 72 h after CL2P
[9] = system: lethal endotoxemia / lethal sepsis
LPS-induced ARDS [10] = details: EGCG 10 mg/kg ip
[11] = system: interleukin-1, interleukin-6, interleukin-8, TNF-alpha
[12] = rat, in vivo

Compound: C[S+]([O-])CCCCN=C=S (stereo not shown) [sulforaphane, 1-isothiocyanato-4-(methylsulfinyl)-butane]
- HO-1 expression ([1]; LPS-stimulated Nrf2 (+/+) primary peritoneal macrophages): significantly augmented
- LPS-stimulated mRNA expression, protein expression and production of TNF-alpha, IL-1beta, COX-2 and iNOS ([1]; Nrf2 (+/+) primary peritoneal macrophages, pretreatment): potently inhibited
- anti-inflammatory effect ([1]; Nrf2 (−/−) primary peritoneal macrophages): attenuated
- expression of NO and cytokines [2]: prevent the expression
- Nrf2/antioxidant response element (ARE) pathway (LPS-induced ARDS [3]; pre-treatment): activated
- LDH activity, wet-to-dry ratio of the lungs, serum IL-6 and TNF-α, nuclear factor-κB protein expression (LPS-induced ARDS [3]; sulforaphane 50 mg/kg, LPS 5 mg/kg 3 days later): significantly decreased
- PGE2 production, COX-2 and MMP-9 protein expression, iNOS activity (LPS-induced ARDS [3]; sulforaphane 50 mg/kg, LPS-induced ALI): significantly inhibited

Compound: CC1=CC(=O)C(C(C)C)=CC1=O [thymoquinone]
- lipopolysaccharide-induced inflammatory reactions [4]: suppressed effectively
- concentration of nitric oxide ([4]; lipopolysaccharide-induced): reduced significantly
- concentration of IL-la (sepsis; 0.75 mg/kg thymoquinone dose): 310.8 ± 70.93 pg/mL
- IL-1β levels (sepsis; 0.75 mg/kg thymoquinone, controls 5505.2±333.96): 2885.0 ± 553.98 pg/mL
- concentration of IL-la (sepsis; 1 mg/kg group): 428.3 ± 71.32 pg/mL
- levels of TNF-α and IL-2 (sepsis; P values=0.1817 and 0.0851): relatively lower levels
- reduction of mortality (sepsis; mice, sepsis): 80-90%
- renal and hepatic biomarker profiles (sepsis; mice, sepsis): improved

Compound: epigallocatechin-3-gallate [EGCG]
- NO production ([5]; cells cotreated with EGCG and LPS): Inhibition
- activation of nuclear factor-kappaB ([5]; electrophoretic mobility shift assay): blocked the activation
- TNF-α-induced nuclear factor-κB (NF-κB) activity (macrophage foam cells): inhibition
- TNF-α-induced downregulation of ABCA1 and decrease in cholesterol efflux to apoA1 (macrophage foam cells; pretreatment with EGCG): attenuated
- myocardial damage and myeloperoxidase activity [6]: reduced
- plasma IL-6 and creatine phosphokinase levels [6]: decreased
- HIF-la and STAT3 protein expression in the colon (experimental colitis): decreasing
- plasma levels of IL-1β and TGF-β1 (experimental colitis): increasing
- release of IL-6 and IL-17 (experimental colitis): reduce the release
- hypotension (mean arterial blood pressure) (polymicrobial sepsis [7]): significantly improved
- survival (polymicrobial sepsis [8]): significantly improved
- rescue from lethal sepsis ([9]; first dose 24 hours after cecal ligation and puncture): rescued
- protection against lethal endotoxemia ([9]; intraperitoneal): protected
- expression of IκB-α (LPS-induced ARDS [10]): increased the expression
- expression of TLR-4, MyD88, TRIF and p-p65 in the lung tissue (LPS-induced ARDS [10]): alleviated the expression
- expression of TNF-α, IL-1β and IL-6 in lung, serum and bronchoalveolar lavage fluid (LPS-induced ARDS [10]): significantly decreased
- expression of p65 (LPS-induced ARDS [10]): had no influence

Compound: trans-3,5-dimethoxy-4-hydroxystilbene [pterostilbene]
- inhibition of interleukin-1, interleukin-6, interleukin-8 and TNF-alpha [11]: inhibition
- bioavailability [12]: 80%
